Experimental data taken from patent US20190133997A1, “ARTEMISININ ANALOG, AND USE, METHOD, AND COMPOSITION FOR PROMOTING LIPID CATABOLISM AND IMPROVING SUGAR METABOLISM” (FUDAN UNIVERSITY, priority 2016, published 2019).

How the values were obtained:
Assay type in all cases: in vivo, Male C57BL/6J mice
[1] = tested on: obese mice induced by high-fat diet; assay: Intraperitoneal artemether, random blood glucose, glucose and insulin tolerance in high-fat diet obese mice; details: intraperitoneal 20 mg/kg twice a week, eight weeks
Experimental: (§1) The mice were breeded in the SPF animal laboratory of the Laboratory Animal Center of Fudan University at a room temperature of 21° C.-23° C. with a 12-hour light/dark cycle. […] When the mice were grown to 8-week old, they were randomly divided into a control group and an administration group, with 8 mice in each group. While the mice were fed with a high-fat diet, artemether was injected intraperitoneally. Artemether for intraperitoneal injection was stored at 4° C. in coconut oil at a storage concentration of 6 mg/ml (20 mMol/L), and protected from light. Mice in administration group were injected with artemether at a dose of 20 mg/kg weight. Administration was twice a week for eight weeks.
(§2) The mice were fasted for 12-16 hours and injected intraperitoneally with glucose injection at a dose of 2 mg/kg weight. At 0 min, 30 min, 60 min, 90 min, and 120 min after injection, blood was collected from the tail vein, and blood glucose was measured with OneTouch ExtraEasy glucometer and OneTouch ExtraEasy blood glucose test strips and the results were recorded.
(§3) Insulin was injected intraperitoneally at a dose of 0.75 U/kg weight. At 0 min, 15 min, 30 min, 45 min and 60 min after injection, blood was collected from the tail vein, and blood glucose was measured.
The mice were anesthetized with 10% chloral hydrate and blood was taken from the orbit. The whole blood was centrifuged at 300 rpm for 5 min at 4° C. Serum was taken and the blood glucose levels were measured by automatic biochemical analyzer and calibrator for blood glucose Cfas and kit (Roche).

[2] = tested on: obese mice induced by high-fat diet; assay: Intraperitoneal artemether, fatty liver in obese mice induced by high-fat diet (HE staining); details: intraperitoneal 20 mg/kg twice a week, eight weeks
Experimental: as §1, with “weeks. The mice were sacrificed by cervical dislocation, and liver tissues of mice were removed and fixed. The histological analysis for liver was commissioned by Shanghai Saige Biotech Co., Ltd., and the histological analysis process included tissue fixation, paraffin embedding, sectioning and HE staining.” for “weeks.”

high fat-fed mice = assay: Intraperitoneal artemether, adipose tissue in high fat-fed mice; details: high-fat diet, intraperitoneal 20 mg/kg twice a week, eight weeks
Experimental: as §1, with “weeks. The mice were sacrificed by cervical dislocation and were dissected, and inguinal fat (Inguinal, subcutaneous fat), epididymal fat (Gonadal, visceral fat) and brown fat in the interscapular region (BAT, classic brown fat) were removed, weighed and fixed. The histological analysis of adipose tissue was commissioned by Shanghai Saige Biotech Co., Ltd., which included the steps of fixing, paraffin embedding, sectioning and HE staining.” for “weeks.”

[3] = Intraperitoneal artemether 20 mg/kg, liver damage in healthy mice (HE staining)
Experimental: The mice were breeded in the SPF animal laboratory of the Laboratory Animal Center of Fudan University at a room temperature of 21° C.-23° C. with a 12-hour light/dark cycle. When the mice were grown to 8-week old, they were randomly divided into a control group and an administration group, with 8 mice in each group. Mice in administration group were injected intraperitoneally with artemether. Artemether for intraperitoneal injection was stored at 4° C. in coconut oil at a storage concentration of 6 mg/ml (20 mMol/L), and protected from light. Mice in administration group were injected with artemether at a dose of 20 mg/kg weight. Mice in control group were injected 100 μl coconut oil. Administration was twice a week for eight weeks. The mice were sacrificed by cervical dislocation, and liver tissues of mice were removed and fixed. Liver tissue fixation, paraffin embedding, sectioning and HE staining was commissioned by Shanghai Saige Biotech Co., Ltd.

[4] = Intraperitoneal artemether, glucose metabolism in healthy lean mice; details: intraperitoneal 20 mg/kg twice a week, eight weeks
Experimental: (§4) The mice were breeded in the SPF animal laboratory of the Laboratory Animal Center of Fudan University at a room temperature of 21° C.-23° C. with a 12-hour light/dark cycle. When the mice were grown to 8-week old, they were randomly divided into a control group and an administration group, with 8 mice in each group. Artemether for intraperitoneal injection was stored at 4° C. in coconut oil at a storage concentration of 6 mg/ml (20 mMol/L), and protected from light. Mice in administration group were injected with artemether at a dose of 20 mg/kg weight, and mice in control group were injected with 100 μl coconut oil. Administration was twice a week for eight weeks.
as §2, with “[…].” for “mg/kg weight.”
as §3

[5] = Intraperitoneal artemether, growth of healthy mice on normal diet; details: intraperitoneal 20 mg/kg twice a week, eight weeks, vs control
Experimental: as §4, with “group. Mice in administration group were injected intraperitoneally with artemether.” for “group.”, “weight. Mice” for “weight, and mice”, “weeks and the weight of the mice was recorded weekly.” for “weeks.”

For `CO[C@H]1O[C@@H]2O[C@@]3(C)CC[C@H]4[C@H](C)CC[C@@H]([C@H]1C)[C@@]24OO3` [artemether], the glucose tolerance [1] was “significantly better than that of mice in control group”, the insulin sensitivity [1] was “significantly better than that of mice in control group” and the random blood glucose [1] was “significantly lower than that of mice in control group”. For the same compound, the “morphology of the liver cells” value [2] was “almost normal”, the “lipid in the liver (fatty liver)” value ([2]; control: obvious lipid accumulation) was “only a small amount of lipid” and the “adipocyte size (sectioning and HE staining)” value (high fat-fed mice) was “significantly smaller than that of mice in control group”. For the same compound, the “volume of adipose tissue” value (high fat-fed mice) was “significantly smaller than that of mice in control group”, the “weight of adipose tissue” value (high fat-fed mice) was “significantly smaller than that of mice in control group” and the “morphology of liver cells” value ([3]; healthy lean mice, intraperitoneal 20 mg/kg twice a week, eight weeks) was “normal, and had no difference from that of mice in control group”. The hepatotoxicity ([3]; intraperitoneal 20 mg/kg weight twice a week for eight weeks) was “no hepatotoxicity”, the glucose tolerance curve [4] was “did not differ from that of mice in control group” and the insulin tolerance curve [4] was “did not differ from that of mice in control group”. The “weight gain of healthy mice” value [5] was “not significantly different” and the “weight of healthy mice” value [5] was “no difference”.
